# Experimental data from paper PMC8894670, “An Integrative Multiomics Approach to Characterize Prebiotic Inulin Effects on Faecalibacterium prausnitzii” (Frontiers in Bioengineering and Biotechnology, 2022).
# Key:
# amylosucrase (ams) = target: T1, amylosucrase (ams) (Faecalibacterium duncaniae, UniProt C7H8X5); experiment: MALDI-TOF-MS of products, lysate of overexpressing E. coli; type: biochemical; details: 10 mg/ml sucrose, 50 mM sodium phosphate, 37°C, 10 min; 36 ng soluble lysate protein
# T1 construct: gene FAEPRAA2165_02769; full-length ORF amplified from genomic DNA, pET28a (BamHI/XhoI sites in primers, tag kept if any), E. coli BL21(DE3), soluble lysate; EC 2.4.1.4, GH13; primers encode N-term MAAKQE, C-term LVKNK
# T1 sequence (C7H8X5 1-609): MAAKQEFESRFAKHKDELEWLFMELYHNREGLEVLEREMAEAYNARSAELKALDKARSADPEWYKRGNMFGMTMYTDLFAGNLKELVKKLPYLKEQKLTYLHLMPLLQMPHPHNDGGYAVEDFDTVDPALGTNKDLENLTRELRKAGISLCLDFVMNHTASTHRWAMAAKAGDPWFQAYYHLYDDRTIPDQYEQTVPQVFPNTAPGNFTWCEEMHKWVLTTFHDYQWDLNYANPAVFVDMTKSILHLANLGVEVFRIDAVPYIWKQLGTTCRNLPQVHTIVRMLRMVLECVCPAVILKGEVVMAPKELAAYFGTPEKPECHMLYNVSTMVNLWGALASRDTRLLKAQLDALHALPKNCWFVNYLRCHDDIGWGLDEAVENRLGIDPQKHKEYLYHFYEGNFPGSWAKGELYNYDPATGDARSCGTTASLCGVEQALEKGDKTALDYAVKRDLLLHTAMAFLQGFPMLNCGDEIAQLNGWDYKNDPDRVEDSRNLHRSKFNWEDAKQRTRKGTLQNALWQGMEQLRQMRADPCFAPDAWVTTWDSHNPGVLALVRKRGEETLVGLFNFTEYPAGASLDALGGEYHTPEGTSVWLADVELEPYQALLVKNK
# β-fructosidase (bfrA) = target: T2, β-fructosidase (bfrA) (Faecalibacterium duncaniae, UniProt C7H8W7); experiment: as above; type: biochemical; details: 10 mg/ml sucrose, 50 mM sodium phosphate, 37°C, 10 min; 36 ng soluble lysate protein
# T2 construct: gene FAEPRAA2165_02761; full-length ORF amplified from genomic DNA, pET28a (BamHI/XhoI sites in primers, tag kept if any), E. coli BL21(DE3), soluble lysate; EC 3.2.1.26, GH32; primers encode N-term MNDLTL, C-term FELNL
# T2 sequence (C7H8W7 1-491): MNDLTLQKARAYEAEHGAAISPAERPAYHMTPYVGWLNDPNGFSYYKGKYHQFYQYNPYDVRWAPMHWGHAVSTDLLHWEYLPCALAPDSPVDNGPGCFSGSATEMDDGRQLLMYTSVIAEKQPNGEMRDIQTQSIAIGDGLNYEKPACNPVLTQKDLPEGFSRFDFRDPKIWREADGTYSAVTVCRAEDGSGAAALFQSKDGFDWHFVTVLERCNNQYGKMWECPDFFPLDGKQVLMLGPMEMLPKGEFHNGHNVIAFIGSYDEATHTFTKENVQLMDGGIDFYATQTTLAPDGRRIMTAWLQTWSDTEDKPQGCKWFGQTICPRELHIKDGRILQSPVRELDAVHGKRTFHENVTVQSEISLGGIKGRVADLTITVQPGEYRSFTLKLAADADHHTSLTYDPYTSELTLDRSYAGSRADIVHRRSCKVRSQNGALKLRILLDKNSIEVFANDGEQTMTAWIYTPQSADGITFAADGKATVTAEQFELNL
smiles,measurement,setting,value
OC[C@H]1O[C@@](CO)(O[C@H]2O[C@H](CO)[C@@H](O)[C@H](O)[C@H]2O)[C@@H](O)[C@@H]1O [sucrose],"MALDI-TOF-MS of products, lysate of overexpressing E. coli",amylosucrase (ams),sucrose was degraded by the pET28a-ams and pET28a-bfrA recombinant strains
same,"MALDI-TOF-MS of products, lysate of overexpressing E. coli",β-fructosidase (bfrA),sucrose was degraded by the pET28a-ams and pET28a-bfrA recombinant strains
